For 29 compounds, DC50 and IC50 results are on record in US20250034147A1, “MDM2 DEGRADERS AND USES THEREOF” (Kymera Therapeutics, Inc., priority 2021, published 2025).

T1 sequence (Q00987 whole entry): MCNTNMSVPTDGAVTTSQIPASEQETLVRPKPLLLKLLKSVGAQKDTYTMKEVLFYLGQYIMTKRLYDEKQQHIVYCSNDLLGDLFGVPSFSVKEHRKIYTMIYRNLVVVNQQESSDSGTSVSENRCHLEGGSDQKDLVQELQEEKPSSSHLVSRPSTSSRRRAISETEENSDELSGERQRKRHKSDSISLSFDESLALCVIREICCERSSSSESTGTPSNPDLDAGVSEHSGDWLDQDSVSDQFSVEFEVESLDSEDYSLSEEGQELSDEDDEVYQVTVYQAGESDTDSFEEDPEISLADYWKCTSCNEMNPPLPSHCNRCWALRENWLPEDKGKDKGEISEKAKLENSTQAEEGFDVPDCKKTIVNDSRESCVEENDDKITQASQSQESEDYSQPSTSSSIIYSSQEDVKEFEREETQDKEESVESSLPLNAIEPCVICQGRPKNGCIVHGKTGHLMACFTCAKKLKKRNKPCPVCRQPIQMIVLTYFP

One assay concerns the target T1, HiBiT-tagged MDM2 (Homo sapiens, UniProt Q00987).
T1 construct: expressed in transfected cells
Description: MDM2 HiBit HEK293T degradation. It counts as cell-based. The conditions noted are these: HEK293T cells stably expressing C-terminally HiBiT-tagged MDM2; 4 h; read-out: MDM2 HiBit HEK293T degradation 4 h: Average external-Abs DC50. On the procedure:
HEK293T cells were grown overnight to 70-80% confluency in a 6-well plate in complete media (DMEM 10% FBS) in a 37° C. incubator with 5% CO2. Cells were transfected with 1 micrograms of C- or N-terminally HiBiT-tagged MDM2 constructs using Fugene 6 transfection reagent (Promega) as per manufacturer protocol. After overnight incubation at 37° C., growth media within the wells was replaced with selection media (DMEM+10% FBS+1 microgram/ml final concentration of Puromycin). Puromycin (selection antibiotic) concentrations required for complete cell kill were determined previously. Cells were monitored for the next 48h-96h to select for positively transfected cells. Surviving colonies were pooled and expanded in selection media. Expanded pools of HEK293T cells stably expressing C- and N-terminally HiBiT-tagged MDM2, were characterized using a MDM2 tool degrader and HaloPROTAC3 as positive control. HEK293T cells expressing C-terminally HiBiT-tagged MDM2 were subsequently used for assessment of degradation potencies for MDM2 degraders.
The letter codes for MDM2 degradation potency (DC50) include: A (<10 nM), B […], C (>100-1000 nM), and D (>1000 nM).
Background: The HiBiT peptide binds its large partner to form an active luciferase.
In the case of `O=C1CCN(c2cnc3cc(C4CCN(C(=O)CN5CCC(NC(=O)[C@@H]6NC7(CCCCC7)[C@@]7(C(=O)Nc8cc(Cl)ccc87)[C@H]6c6cccc(Cl)c6F)CC5)CC4)ccn23)C(=O)N1` [I-164], the DC50 (commonly the concentration giving 50% degradation) was 100 to 1000 nM.

For the compound `Cn1c(=O)n(C2CCC(=O)NC2=O)c2ccc(CN3CCN(CCN4CCC(NC(=O)[C@@H]5NC6(CCCCC6)[C@@]6(C(=O)Nc7cc(Cl)ccc76)[C@H]5c5cccc(Cl)c5F)CC4)CC3)cc21` (some centres unmarked) [I-167], the DC50 was in the range of 10 to 100 nM.

With `Cn1c(=O)n(C2CCC(=O)NC2=O)c2ccc(C3CCN(C[C@H]4CC[C@H](NC(=O)[C@@H]5NC6(CCCCC6)[C@@]6(C(=O)Nc7cc(Cl)ccc76)[C@H]5c5cccc(Cl)c5F)CC4)C(C(=O)O)C3)cc21` (some centres unmarked) [I-168], the half-maximal degradation concentration (DC50) lay in the range of 10 to 100 nM.

On to `O=C1CCN(c2cnc3cc(N4CCN(CCN5CCC(NC(=O)[C@@H]6NC7(CCCCC7)[C@@]7(C(=O)Nc8cc(Cl)ccc87)[C@H]6c6cccc(Cl)c6F)CC5)CC4)ccn23)C(=O)N1` [I-169], for which the DC50 was in the range of 10 to 100 nM.

`Cn1c(=O)n(C2CCC(=O)NC2=O)c2ccc(C3CCN(Cc4ccc(NC(=O)[C@@H]5NC6(CCCCC6)[C@@]6(C(=O)Nc7cc(Cl)ccc76)[C@H]5c5cccc(Cl)c5F)cc4C(=O)O)CC3)cc21` (some centres unmarked) [I-171]: the half-maximal degradation concentration (DC50) is 10 to 100 nM.

Take `Cn1c(=O)n(C2CCC(=O)NC2=O)c2ccc(C3(O)CCN(C[C@H]4CC[C@H](NC(=O)[C@@H]5NC6(CCCCC6)[C@@]6(C(=O)Nc7cc(Cl)ccc76)[C@H]5c5cccc(Cl)c5F)CC4)CC3)cc21` (some centres unmarked) [I-194]: the DC50 is less than 10 nM.

With `Cn1c(=O)n(C2CCC(=O)NC2=O)c2ccc(CN3CCN(C[C@H]4CC[C@H](NC(=O)[C@@H]5NC6(CCCCC6)[C@@]6(C(=O)Nc7cc(Cl)ccc76)[C@H]5c5cccc(Cl)c5F)CC4)C(C(=O)O)C3)cc21` (some centres unmarked) [I-196], the DC50 lay in the range of 10 to 100 nM.

As to `Cn1c(=O)n(C2CCC(=O)NC2=O)c2ccc(CCN3CCN(C[C@H]4CC[C@H](NC(=O)[C@@H]5NC6(CCCCC6)[C@@]6(C(=O)Nc7cc(Cl)ccc76)[C@H]5c5cccc(Cl)c5F)CC4)C(C(=O)O)C3)cc21` (some centres unmarked) [I-197], the 50% degradation concentration (DC50) was less than 10 nM.

Turning to `Cn1c(=O)n(C2CCC(=O)NC2=O)c2ccc(CCCO[C@@H]3C[C@@H](C(=O)O)N(C[C@H]4CC[C@H](NC(=O)[C@@H]5NC6(CCCCC6)[C@@]6(C(=O)Nc7cc(Cl)ccc76)[C@H]5c5cccc(Cl)c5F)CC4)C3)cc21` (some centres unmarked) [I-198], the DC50 lay in the range of 100 to 1000 nM.

In the case of `Cn1c(=O)n(C2CCC(=O)NC2=O)c2ccc(CCCO[C@@H]3C[C@H](C(=O)O)N(C[C@H]4CC[C@H](NC(=O)[C@@H]5NC6(CCCCC6)[C@@]6(C(=O)Nc7cc(Cl)ccc76)[C@H]5c5cccc(Cl)c5F)CC4)C3)cc21` (some centres unmarked) [I-199], the DC50 fell in the range of 10 to 100 nM.

Turning to `Cn1c(=O)n(C2CCC(=O)NC2=O)c2ccc(O[C@@H]3C[C@@H](C(=O)O)N(C[C@H]4CC[C@H](NC(=O)[C@@H]5NC6(CCCCC6)[C@@]6(C(=O)Nc7cc(Cl)ccc76)[C@H]5c5cccc(Cl)c5F)CC4)C3)cc21` (some centres unmarked) [I-200], the DC50 is 10 to 100 nM.

As to `Cn1c(=O)n(C2CCC(=O)NC2=O)c2ccc(CCCN3CCN(C[C@H]4CC[C@H](NC(=O)[C@@H]5NC6(CCCCC6)[C@@]6(C(=O)Nc7cc(Cl)ccc76)[C@H]5c5cccc(Cl)c5F)CC4)C(C(=O)O)C3)cc21` (some centres unmarked) [I-202], the DC50 is less than 10 nM.

With `Cn1c(=O)n(C2CCC(=O)NC2=O)c2ccc(N3CCC(CC4(C(=O)O)CCN(C[C@H]5CC[C@H](NC(=O)[C@@H]6NC7(CCCCC7)[C@@]7(C(=O)Nc8cc(Cl)ccc87)[C@H]6c6cccc(Cl)c6F)CC5)CC4)CC3)cc21` (some centres unmarked) [I-203], the half-maximal degradation concentration (DC50) was less than 10 nM.

Regarding `Cc1ncsc1-c1ccc(CNC(=O)[C@@H]2C[C@@H](O)CN2C(=O)[C@@H](NC(=O)C2(F)CC2)C(C)(C)C)c(OCCCC2CCN(C[C@H]3CC[C@H](NC(=O)[C@@H]4NC5(CCCCC5)[C@@]5(C(=O)Nc6cc(Cl)ccc65)[C@H]4c4cccc(Cl)c4F)CC3)CC2)c1` [I-204], the half-maximal degradation concentration (DC50) is more than 1000 nM.

Turning to `O=C(O)Cn1c(=O)n(C2CCC(=O)NC2=O)c2ccc(C3CCN(C[C@H]4CC[C@H](NC(=O)[C@@H]5NC6(CCCCC6)[C@@]6(C(=O)Nc7cc(Cl)ccc76)[C@H]5c5cccc(Cl)c5F)CC4)CC3)cc21` (some centres unmarked) [I-206], the DC50 lay in the range of 10 to 100 nM.

For `O=C1CCN(c2ccc(CCCCN3CCN(C[C@H]4CC[C@H](NC(=O)[C@@H]5NC6(CCCCC6)[C@@]6(C(=O)Nc7cc(Cl)ccc76)[C@H]5c5cccc(Cl)c5F)CC4)CC3)cc2)C(=O)N1` [I-208], the DC50 was more than 1000 nM.

Regarding `Cn1c(=O)n(C2CCC(=O)NC2=O)c2ccc(CC3(CC(=O)O)CCN(C[C@H]4CC[C@H](NC(=O)[C@@H]5NC6(CCCCC6)[C@@]6(C(=O)Nc7cc(Cl)ccc76)[C@H]5c5cccc(Cl)c5F)CC4)CC3)cc21` (some centres unmarked) [I-210], the 50% degradation concentration (DC50) was 10 to 100 nM.

As to `Cn1c(=O)n(C2CCC(=O)NC2=O)c2ccc(CCCCCN3CCN(C[C@H]4CC[C@H](NC(=O)[C@@H]5NC6(CCCCC6)[C@@]6(C(=O)Nc7cc(Cl)ccc76)[C@H]5c5cccc(Cl)c5F)CC4)[C@H](C(=O)O)C3)cc21` (some centres unmarked) [I-211], the DC50 is less than 10 nM.

For the compound `Cn1c(=O)n(C2CCC(=O)NC2=O)c2ccc(CCCCCN3CCN(C[C@H]4CC[C@H](NC(=O)[C@@H]5NC6(CCCCC6)[C@@]6(C(=O)Nc7cc(Cl)ccc76)[C@H]5c5cccc(Cl)c5F)CC4)[C@@H](C(=O)O)C3)cc21` (some centres unmarked) [I-212], the half-maximal degradation concentration (DC50) was less than 10 nM.

Consider `Cn1c(=O)n(C2CCC(=O)NC2=O)c2ccc(CCCCN3CCN(C[C@H]4CC[C@H](NC(=O)[C@@H]5NC6(CCCCC6)[C@@]6(C(=O)Nc7cc(Cl)ccc76)[C@H]5c5cccc(Cl)c5F)CC4)[C@H](C(=O)O)C3)cc21` (some centres unmarked) [I-213], for which the DC50 was less than 10 nM.

Regarding `Cn1c(=O)n(C2CCC(=O)NC2=O)c2ccc(CCCCN3CCN(C[C@H]4CC[C@H](NC(=O)[C@@H]5NC6(CCCCC6)[C@@]6(C(=O)Nc7cc(Cl)ccc76)[C@H]5c5cccc(Cl)c5F)CC4)[C@@H](C(=O)O)C3)cc21` (some centres unmarked) [I-214], the DC50 is less than 10 nM.

With `Cn1c(=O)n(C2CCC(=O)NC2=O)c2ccc(CCCN3CCN(C[C@H]4CC[C@H](NC(=O)[C@@H]5NC6(CCCCC6)[C@@]6(C(=O)Nc7cc(Cl)ccc76)[C@H]5c5cccc(Cl)c5F)CC4)[C@@H](C(=O)O)C3)cc21` (some centres unmarked) [I-216], the half-maximal degradation concentration (DC50) was less than 10 nM.

Take `Cn1c(=O)n(C2CCC(=O)NC2=O)c2ccc(CCCN3CCN(C[C@H]4CC[C@H](NC(=O)[C@@H]5NC6(CCCCC6)[C@@]6(C(=O)Nc7cc(Cl)ccc76)[C@H]5c5cccc(Cl)c5F)CC4)[C@@H](C(=O)NS(C)(=O)=O)C3)cc21` (some centres unmarked) [I-222]: the DC50 is less than 10 nM.

As for `Cn1c(=O)n(C2CCC(=O)NC2=O)c2ccc(CCCN3CCN(C[C@H]4CC[C@H](NC(=O)[C@@H]5NC6(CCC(C)(C)CC6)[C@@]6(C(=O)Nc7cc(Cl)ccc76)[C@H]5c5ccnc(Cl)c5F)CC4)[C@@H](C(=O)O)C3)cc21` (some centres unmarked) [I-223], the DC50 was less than 10 nM.

Take `Cn1c(=O)n(C2CCC(=O)NC2=O)c2ccc(C3CCN(CCN4CCN(C[C@H]5CC[C@H](NC(=O)[C@@H]6NC7(CCCCC7)[C@@]7(C(=O)Nc8cc(Cl)ccc87)[C@H]6c6cccc(Cl)c6F)CC5)[C@H](C(=O)O)C4)CC3)cc21` (some centres unmarked) [I-227]: the DC50 is less than 10 nM.

Regarding `Cn1c(=O)n(C2CCC(=O)NC2=O)c2ccc(CCCN3CCN(C[C@H]4CC[C@H](NC(=O)[C@@H]5NC6(CCCCC6)[C@@]6(C(=O)Nc7cc(Cl)ccc76)[C@H]5c5cccc(Cl)c5F)CC4)C[C@H]3C(=O)O)cc21` (some centres unmarked) [I-229], the half-maximal degradation concentration (DC50) is less than 10 nM.

Regarding `Cn1c(=O)n(C2CCC(=O)NC2=O)c2ccc(CCCN3CCN(C[C@H]4CC[C@H](NC(=O)[C@@H]5NC6(CCCCC6)[C@@]6(C(=O)Nc7cc(Cl)ccc76)[C@H]5c5cccc(Cl)c5F)CC4)C(P(=O)(O)O)C3)cc21` (some centres unmarked) [I-235], the 50% degradation concentration (DC50) fell in the range of 10 to 100 nM.

The next assay relates to RS411 cells. Description: Cell Viability CTG Assay. It counts as cell-based. The following applies: Homo sapiens, RS4-11, CellTiter Glo (CTG) cell viability, read-out: Average external-IC50. On the procedure: Compounds or DMSO 60 nL were stamped to the cell plate as the platemap. RS411 cells were centrifuged at 800 rpm for 5 min, suspended with culture medium, and counted with Countess (Invitrogen). The cell density was adjusted to the recommend information. 30 μL of cell solution (1000 cells/well) was added to the assay plate as the platemap and 30 μL of media was added to column 2 and column 23 as the platemap. The plate was spun down briefly. The final concentration of the compounds started at 10 μM (3 fold dilution and 11 doses) and final DMSO concentration was 0.2%. The plate was spun down briefly and incubated at 37° C., 5% CO2 for 1 day. […] 30 μL CellTiter Glo reagent was added to each well and the plate was centrifuged at 1000 rpm for 30 sec. The plate was shaken for 1 min and centrifuged at 1000 rpm for 30 sec. The plate was incubated at RT for 10 min to stabilize the luminescent signal and the luminescence was read by EnVision.
The letter codes for IC50 indicate the concentration of compound required to affect 50% of cells: A (<0.005 μM), B (0.005-0.05 μM), C (0.05-0.5 μM), and D (>0.5 μM).
For orientation: ATP-based viability assays read luminescence as a measure of living cells.
Regarding `Cn1c(=O)n(C2CCC(=O)NC2=O)c2ccc(C#CC3CCN(C(=O)[C@@H]4CC[C@@H](NC(=O)[C@@H]5NC6(CCC(C)(C)CC6)[C@@]6(C(=O)Nc7cc(Cl)ccc76)[C@H]5c5cccc(Cl)c5F)CO4)CC3)cc21` (some centres unmarked) [I-36], the IC50 – broadly, the concentration at which inhibition is half-maximal – was less than 5 nM.

Regarding `COc1cc2c(cc1OC(C)C)[C@H](c1ccc(Cl)cc1)N(c1ccc(N(C)CC3CCN(CCCc4ccc5c(c4)n(C)c(=O)n5C4CCC(=O)NC4=O)C(=O)C3)cc1)C(=O)C2` (some centres unmarked) [I-68], the 50% inhibitory concentration (IC50) is less than 5 nM.
